Test results published in patent publication US20120010072A1 (priority 2009, published 2012).
Where two headings read alike, the source gives them in different places.

Columns and labels:
Phytophthora infestans = assay type: cell-based; conditions: 405 nm, 7 days after inoculation, 18° C.
[1] = test system: Sugar beet seeds (Beretta); test: Safener effect of dimethomorph: germination of pelleted sugar beet seeds under cold stress; assay type: in vivo; conditions: 30 g a.i./U seed pelleting; % of sown seeds; 6 days 13° C. then 5° C.; all seeds also treated with 6 g/U thiram and 14.7 g/U hymexazole
Method: Sugar beet seeds (Beretta) were pelleted either with pyraclostrobin alone or with pyraclostrobin in combination with dimethomorph. After sowing, the seeds (200 seeds per treatment, 4 repetitions) were grown for 6 days at 13° C. and then exposed to 5° C. for 7 days. Cultivation was then continued at 20° C. During the whole cultivation period the soil was kept at 20% humidity. 7 and 8 days after sowing (DAS) germination was assessed as % of the number of sown seeds.

Septoria tritici = conditions: 0.004 ppm; 405 nm, 7 days after inoculation, 18° C.

`COc1ccc(C(=CC(=O)N2CCOCC2)c2ccc(Cl)cc2)cc1OC` [Dimethomorph] gave an Observed efficacy (Phytophthora infestans; 0.25 ppm) of 51%.
With `C/C(=N\C#N)N(C)Cc1ccc(Cl)nc1` [Acetamiprid] the Observed efficacy (Phytophthora infestans; 0.25 ppm) was 0%.
With `COC(=O)N(OC)c1ccccc1COc1ccn(-c2ccc(Cl)cc2)n1` [Pyraclostrobin] the “Germination 7 DAS” value [1] was 16%, the “Germination 8 DAS” value [1] was 27% and the Observed efficacy (Septoria tritici) was 49%.
With `CC(C)C1CCC(Cc2ccc(Cl)cc2)C1(O)Cn1cncn1` (stereo not drawn) [Ipconazol] the Observed efficacy (Phytophthora infestans; 0.063 ppm) was 2%.
